In article PMC12388523, “Flavonoids and Sesquiterpene Lactones from Lychnophora ericoides (Arnica-Do-Cerrado) and Their In Vitro Effects on Multiple Myeloma and Acute Myeloid Leukemia” (Metabolites, 2025):

Experiments:
KMS-12-PE cells = experiment: Metabolic activity, resazurin staining, KMS-12-PE; type: cell-based
Procedure: (§1) Acute myeloid leukemia cell line HL-60 and multiple myeloma cell lines AMO-1 and KMS-12-PE were obtained from the German Collection of Microorganisms and Cell Cultures (DSMZ), Braunschweig, Germany, and non-tumorigenic stromal cell line HS-5 was acquired from the American Type Culture Collection (ATCC, Manassas, VA, USA). All cell lines were cultured in RPMI 1640 medium without phenol red (Pan Biotech, Aidenbach, Germany), supplemented with 2 mM glutamine, 100 U/mL penicillin, 100 µg/mL streptomycin (Sigma-Aldrich, St. Louis, MO, USA), and 10% fetal bovine serum (FBS Maximus, Catus Biotech GmbH, Tutzing, Germany) at 37 °C in a humidified atmosphere of 5% CO2/95% air. Cells were fed twice weekly. Logarithmically growing cells were resuspended at 1 × 10^5 cells/mL, plated in triplicate in round-bottom 96-well plates (100 µL per well; Falcon, Becton Dickinson, Franklin Lakes, NJ, USA), and incubated at 37 °C in 5% CO2/95% air for 2 h. Subsequently, the compounds were adjusted in the cell culture medium to reach the final concentrations in a total volume of 150 µL and incubated for an additional 72 h. Cell proliferation was assessed by [^3H]-thymidine uptake. Each well was exposed to 2 µCi [^3H]-thymidine (Hartmann Analytic, Braunschweig, Germany) during the final 12–16 h of incubation. Cells were harvested using a semi-automated device, and [^3H]-thymidine incorporation (expressed in counts per minute, cpm) was measured with a scintillation counter (MicroBeta TriLux, PerkinElmer, Waltham, MA, USA). Metabolic activity was assessed by resazurin staining. Resazurin (Carl Roth, Karlsruhe, Germany) was dissolved in distilled water at a concentration of 0.1 mg/mL, and 15 µL of this solution was added to each well, followed by a 2 h incubation at 37 °C. Relative fluorescence units (RFUs) were measured using a Synergy H1 plate reader equipped with a 560 nm excitation/590 nm emission filter set (BioTek; Agilent, Santa Clara, CA, USA). Proliferation and metabolic activity in the absence of compounds were defined as 100% (control), and the values for compound-treated samples were expressed as percentages relative to the control. Selectivity indices were calculated by dividing the IC50 value of each compound against HS-5 cells through the IC50 values against the investigated cell lines.
(§2) The Wilcoxon Rank Sum Test was used to analyze proliferation and metabolic activity in the absence and presence of varying compound concentrations (NCSS 2007 software, version 07.1.2, Kaysville, UT, USA). A p-value < 0.05 was considered statistically significant. IC50 values were calculated using GraphPad Prism 10.1.2. This software reports 95% confidence intervals instead of standard errors. […] Nonetheless, the figures clearly illustrate the IC50 values due to the narrow concentration range tested.
(§3) Proliferation inhibition often leads to cell death. Therefore, the cytotoxic activity of the compounds was further evaluated using a modified 3-(4,5-dimethylthiazol-2-yl)-2,5-diphenyltetrazolium bromide (MTT) assay, the resazurin (Alamar Blue) assay. Metabolically active cells reduce the non-fluorescent dye resazurin to the fluorescent dye resorufin via mitochondrial reductase activity, which correlates with cell viability. In the first step the metabolic activity of the four isolated flavonoids was investigated, showing a dose-dependent reduction, but to a much lower extent than in the proliferation assays (Table A2). In fact, only 7,3′,4′-trimethoxymyricetin (2) inhibited the metabolic activity of all four cell lines by more than 50% at a concentration of 100 µM.

BC cell line = test system: BC cell line; set-up: method as in PMID 17089326; conditions: cited from earlier work
HL-60 cells = experiment: Metabolic activity, resazurin staining, HL-60; type: cell-based
Procedure: as §1, §2, §3

CEM = test system: CEM; set-up: method as in PMID 15577239; conditions: cited from earlier work
[1] = test system: HL-60, MOLM-13, AMO-1, and KMS-12 PE cancer cells; experiment: Proliferation, range over the four tested cancer cell lines; type: cell-based; conditions: HL-60, MOLM-13, AMO-1, KMS-12 PE; read-out: IC50 inhibition of proliferation, range over cell lines
Procedure: Acute myeloid leukemia cell line HL-60 and multiple myeloma cell lines AMO-1 and KMS-12-PE were obtained from the German Collection of Microorganisms and Cell Cultures (DSMZ), Braunschweig, Germany, and non-tumorigenic stromal cell line HS-5 was acquired from the American Type Culture Collection (ATCC, Manassas, VA, USA). All cell lines were cultured in RPMI 1640 medium without phenol red (Pan Biotech, Aidenbach, Germany), supplemented with 2 mM glutamine, 100 U/mL penicillin, 100 µg/mL streptomycin (Sigma-Aldrich, St. Louis, MO, USA), and 10% fetal bovine serum (FBS Maximus, Catus Biotech GmbH, Tutzing, Germany) at 37 °C in a humidified atmosphere of 5% CO2/95% air. […] Cell proliferation was assessed by [^3H]-thymidine uptake. […] Cells were harvested using a semi-automated device, and [^3H]-thymidine incorporation (expressed in counts per minute, cpm) was measured with a scintillation counter (MicroBeta TriLux, PerkinElmer, Waltham, MA, USA). Metabolic activity was assessed by resazurin staining. […] Relative fluorescence units (RFUs) were measured using a Synergy H1 plate reader equipped with a 560 nm excitation/590 nm emission filter set (BioTek; Agilent, Santa Clara, CA, USA). Proliferation and metabolic activity in the absence of compounds were defined as 100% (control), and the values for compound-treated samples were expressed as percentages relative to the control. […]

AMO-1 cells = experiment: Metabolic activity, resazurin staining, AMO-1; type: cell-based
Procedure: as §1, §2, §3

MOLM-13 = test system: MOLM-13; set-up: method as in PMID 29350920; conditions: cited from earlier work

IC50 (HL-60 cells; Homo sapiens, HL-60, 72 h, resazurin, 95% confidence interval in brackets, read-out: IC50 inhibition of metabolic activity): 1.7 µM | IC50 [1]: 1 to 1.6 µM
Structure (SMILES): C=C(C)C(=O)O[C@H]1C[C@@]2(C)OC(=CC2=O)/C(CO)=C\[C@H]2OC(=O)C(=C)[C@H]12 [Compound 5, goyazensolide]
IC50 (KMS-12-PE cells; Homo sapiens, KMS-12-PE, 72 h, resazurin, 95% confidence interval in brackets, read-out: IC50 inhibition of metabolic activity): 1.9 µM | Selectivity index (metabolic activity) (KMS-12-PE cells; IC50 HS-5 / IC50 KMS-12-PE): 1.4 | IC50 (BC cell line): < 0.3 µM | Selectivity index (metabolic activity) (HL-60 cells; IC50 HS-5 / IC50 HL-60): 1.5 | IC50 (CEM): 0.17 µM | IC50 (AMO-1 cells; Homo sapiens, AMO1, AMO-1, 72 h, resazurin, 95% confidence interval in brackets, read-out: IC50 inhibition of metabolic activity): 2 µM | Selectivity index (metabolic activity) (AMO-1 cells; IC50 HS-5 / IC50 AMO-1): 1.3 | IC50 (MOLM-13): 0.86 µM
